Experimental findings from ChEMBL document CHEMBL4715849, “Recent Progress in the Discovery of Antifungal Agents Targeting the Cell Wall” (J Med Chem, 2020) are described below.

In assay [1] the test system is Candida albicans. The assay is described as follows: Antifungal activity against Candida albicans AMB-25 incubated for 48 hrs by serial two-fold dilution method. Type of assay: functional.
Assay [2] is described as follows: Inhibition of Candida albicans IFO1060 1,3-beta-D-glucan synthase.
For assay [3], the system named is Candida albicans. The assay is described as follows: Antifungal activity against Candida albicans incubated for 24 hrs by turbidimetric method. The class given is functional.
In assay [4] the test system is Candida albicans. The assay is described as follows: Antifungal activity against Candida albicans ATCC 262 incubated for 24 hrs by turbidimetric method. Type of assay: functional.
Assay [5] has as its system Candida albicans. The assay is described as follows: Antifungal activity against Candida albicans K1133 by agar incorporation method. The class given is functional.
Assay [6] concerns Candida tropicalis. The assay is described as follows: Antifungal activity against Candida tropicalis K337 by agar incorporation method. Type of assay: functional.
Assay [7] has as its system Candida albicans. The assay is described as follows: Antifungal activity against Candida albicans K341 by agar incorporation method. Type of assay: functional.
The subject of assay [8] is Meyerozyma guilliermondii. The assay is described as follows: Antifungal activity against Candida guilliermondii K334 by agar incorporation method. Type of assay: functional.
Assay [9] concerns Candida albicans. The assay is described as follows: Antifungal activity against Candida albicans K335 by agar incorporation method. Type of assay: functional.
In assay [10] the test system is Candida parapsilosis. The assay is described as follows: Antifungal activity against Candida parapsilosis K1154 by agar incorporation method. Type of assay: functional. Conditions: Lodderomyces parapsilosis.
Assay [11] concerns Candida albicans. The assay is described as follows: Antifungal activity against Candida albicans K1082 by agar incorporation method. Type of assay: functional.
A further assay has as its system Cyberlindnera jadinii. The assay is described as follows: Antifungal activity against Candida utilis K482 by agar incorporation method. Particulars: Williopsis jadinii. The class given is functional.
The subject of assay [12] is Candida parapsilosis. The assay is described as follows: Antifungal activity against Candida parapsilosis K332 by agar incorporation method. The class given is functional. Particulars: Lodderomyces parapsilosis.
Assay [13] relates to Candida tropicalis. The assay is described as follows: Antifungal activity against Candida tropicalis K1155 by agar incorporation method. The class given is functional.
The test system of the next assay is Pichia kudriavzevii. The assay is described as follows: Antifungal activity against Candida krusei K1153 by agar incorporation method. Type of assay: functional.
A further assay has as its system Aspergillus fumigatus. The assay is described as follows: Antifungal activity against Aspergillus fumigatus CF1083 infected in iv dosed mouse model of pulmonary aspergillosis administered once daily for 4 days and measured on day 14. The class given is functional. Particulars: 336 h, time 14 day.
The nature of assay [14]: Inhibition of fungi 1,3-beta-D-glucan synthase.

Values after ≈ are worked out from the molar mass of the structure shown.

On to `COC(=O)/C=C/C(=O)NC[C@H](N)C(=O)N[C@@H](CC(C)C)C(=O)O`, for which, in the assay on Candida albicans [1], the MIC (in general, the lowest concentration that inhibits growth of the organism) was determined as 0.4 mg/L (≈ 1.21 µM).
For `CCCCCCCCCCCCC[C@H]1OC(=O)[C@H](CCCNC(=O)[C@@H](N)CCCN)NC(=O)[C@@H]([C@@H](C)O)NC(=O)CNC(=O)[C@H]([C@H](O)CC(N)=O)NC(=O)[C@H]2[C@@H](O)CCN2C(=O)[C@H]([C@@H](C)O)NC(=O)[C@@H]2C[C@@H](O)CN2C(=O)[C@H](C(C)C)NC(=O)[C@H](Cc2ccc(O)cc2)NC(=O)[C@@H](C)NC(=O)[C@H]([C@@H](C)O)NC1=O`, in assay [2], the midpoint of inhibition, the IC50, lay at 8 nM.
As for `COC(=O)/C=C/C(=O)NC[C@H](N)C(=O)N[C@H](C(=O)O)C(C)C`, inhibition of growth against Candida albicans [1] (MIC) required 0.4 mg/L (≈ 1.27 µM).
`COC(=O)/C=C/C(=O)NC[C@H](N)C(=O)N[C@@H](CCSC)C(=O)O` showed an MIC in the assay on Candida albicans [1] of 0.4 mg/L (≈ 1.15 µM).
In the assay with Candida albicans [1], `COC(=O)/C=C/C(=O)NC[C@H](NC(=O)[C@H](N)CC(C)C)C(=O)O` showed an MIC of 0.4 mg/L (≈ 1.21 µM).
For `COC(=O)/C=C/C(=O)NC[C@H](NC(=O)[C@@H](N)CCSC)C(=O)N[C@@H](CCSC)C(=O)O`, the MIC in the assay with Candida albicans [3] and in the assay with Candida albicans [4] was 0.025 mg/L (≈ 0.0522 µM) each time.
On to `COC(=O)/C=C/C(=O)NC[C@H](N)C(=O)N[C@@H](CCSC)C(=O)N[C@@H](C)C(=O)O`, for which the MIC against Candida albicans [3] and in the assay on Candida albicans [4] was 0.025 mg/L (≈ 0.0597 µM) each time.
As for `CCCC(NC(=O)[C@@H](N)CCSC)C(=O)N[C@@H](CNC(=O)/C=C/C(=O)OC)C(N)=O` (stereo partly specified), the MIC in the assay on Candida albicans [3] and with Candida albicans [4] was 0.025 mg/L (≈ 0.0561 µM) throughout.
In the case of `CC[C@H](C)CC/C=C/C=C(\C)[C@@H](O)C/C=C/C=C/C(=O)O[C@H]1[C@H](O)[C@@H](CO)O[C@]2(OCc3cc(O)cc(O)c32)[C@@H]1O`, the MIC (in the assay with Candida albicans [5]; in the assay on Candida tropicalis [6]; against Candida albicans [7]; in [8]; against Candida albicans [9]; with Candida parapsilosis [10]) was 0.1 mg/L (≈ 0.174 µM) in each case. The MIC with Candida albicans [11], against Cyberlindnera jadinii, against Candida parapsilosis [12], with Candida tropicalis [13] and against Pichia kudriavzevii was 0.1 mg/L (≈ 0.174 µM) each time.
With `CCCCCCCCCCCCC[C@H]1OC(=O)[C@H](CCCN(CCN)C(=O)[C@H](CCCN)N(CCN)CCN)NC(=O)[C@@H]([C@@H](C)O)NC(=O)CNC(=O)[C@H]([C@H](O)CC(N)=O)NC(=O)[C@H]2[C@@H](O)CCN2C(=O)[C@H]([C@@H](C)O)NC(=O)[C@@H]2C[C@@H](O)CN2C(=O)[C@H](C(C)C)NC(=O)[C@H](Cc2ccc(O)cc2)NC(=O)[C@@H](C)NC(=O)[C@H]([C@@H](C)O)NC1=O`, in the assay on Aspergillus fumigatus, the ED50 (in general, the midpoint of the dose-response relation) was determined as 5.2 mg/kg. In addition, the IC50 (in general, the point on the concentration scale where inhibition reaches its midpoint) in assay [14] was 0.2 nM.
Consider `CCCC(NC(=O)[C@@H](N)CNC(=O)/C=C/C(=O)OC)C(=O)O` (stereo partly specified), for which the MIC with Candida albicans [1] came out at 0.4 mg/L (≈ 1.27 µM).
On to `CCCCCCCCCCCCC[C@H]1OC(=O)[C@H](CCCN(CCN)CCN)NC(=O)[C@@H]([C@@H](C)O)NC(=O)CNC(=O)[C@H]([C@H](O)CC(N)=O)NC(=O)[C@H]2[C@@H](O)CCN2C(=O)[C@H]([C@@H](C)O)NC(=O)[C@@H]2C[C@@H](O)CN2C(=O)[C@H](C(C)C)NC(=O)[C@H](Cc2ccc(O)cc2)NC(=O)[C@@H](C)NC(=O)[C@H]([C@@H](C)O)NC1=O`, for which the IC50 in [2] worked out at 2 nM.
In turn, `COC(=O)/C=C/C(=O)NC[C@H](N)C(=O)N[C@@H](C)C(=O)O` showed an MIC against Candida albicans [1] of 0.4 mg/L (≈ 1.39 µM).
Consider `COC(=O)/C=C/C(=O)NC[C@H](NC(=O)[C@H](C)NC(=O)[C@@H](N)CCSC)C(N)=O`, for which the MIC against Candida albicans [3] and with Candida albicans [4] was 0.025 mg/L (≈ 0.0599 µM) throughout.
In the assay on Candida albicans [1], `COC(=O)/C=C/C(=O)NC[C@H](N)C(=O)N[C@@H](Cc1ccc(O)cc1)C(=O)O` yielded an MIC of 0.4 mg/L (≈ 1.05 µM).
Regarding `CCCCCCCCCCCCC[C@H]1OC(=O)[C@H](CCCNC(=O)[C@@H](CCCN)N(CCN)CCN)NC(=O)[C@@H]([C@@H](C)O)NC(=O)CNC(=O)[C@H]([C@H](O)CC(N)=O)NC(=O)[C@H]2[C@@H](O)CCN2C(=O)[C@H]([C@@H](C)O)NC(=O)[C@@H]2C[C@@H](O)CN2C(=O)[C@H](C(C)C)NC(=O)[C@H](Cc2ccc(O)cc2)NC(=O)[C@@H](C)NC(=O)[C@H]([C@@H](C)O)NC1=O`, in the assay on Aspergillus fumigatus, the ED50 stood at 5.2 mg/kg. In addition, the IC50 in assay [14] was 0.9 nM.
The compound `COC(=O)/C=C/C(=O)NC[C@H](NC(=O)[C@@H](C)N)C(=O)O` yielded an MIC in the assay with Candida albicans [1] of 0.4 mg/L (≈ 1.39 µM).
For `CCCCC/C=C/C=C/C(=O)OC[C@H]1O[C@@H](O[C@H]2[C@H](OC(=O)/C=C/C=C/C[C@H](O)/C(C)=C/C=C/CC[C@@H](C)CC)[C@@H](O)[C@@]3(OCc4cc(O)cc(O)c43)O[C@@H]2CO)[C@H](O)[C@@H](O)[C@H]1O`, the MIC (against Candida albicans [5]; with Candida tropicalis [6]; against Candida albicans [7]; in assay [8]; in the assay on Candida albicans [9]; in the assay with Candida parapsilosis [10]) was 0.1 mg/L (≈ 0.113 µM) each time. The MIC in the assay on Candida albicans [11], in the assay on Cyberlindnera jadinii, in the assay with Candida parapsilosis [12], against Candida tropicalis [13] and in the assay with Pichia kudriavzevii was 0.1 mg/L (≈ 0.113 µM) in each case.
For the compound `CCC[C@H](NC(=O)[C@@H](N)CCCCN)C(=O)N[C@@H](CNC(=O)/C=C/C(=O)OC)C(=O)O`, the MIC in the assay on Candida albicans [3] and in the assay with Candida albicans [4] was 0.025 mg/L (≈ 0.0564 µM) in each case.
